Experimental data reported in article PMC4750701, “Role of Mitochondrial RNA Polymerase in the Toxicity of Nucleotide Inhibitors of Hepatitis C Virus” (Antimicrobial Agents and Chemotherapy, 2016).
Read-outs that look alike come from different tables or passages of the source.

Tests used:
[1] = test system: T-cells (MT-4); assay: Cytotoxicity in MT-4 T-cells, 5-day treatment; conditions: read-out: Mean CC50 ± SD in T-cells (MT-4); 5-day treatment
[2] = test system: human myeloid progenitors (bone marrow cells); assay: Bone marrow myeloid progenitor colony assay, 14 days; type: cell-based; conditions: read-out: Mean CC50 ± SD in Bone marrow cells Myeloid
[3] = test system: Fibroblasts (MRC5); assay: Cytotoxicity in MRC5 fibroblasts, 5-day treatment; conditions: read-out: Mean CC50 ± SD in Fibroblasts (MRC5); 5-day treatment
[4] = test system: Primary human hepatocytes; assay: Cytotoxicity in primary human hepatocytes, 5 days; conditions: read-out: Mean CC50 ± SD in Hepatic cells (primary); human primary hepatocytes, 5 days
Description: Primary human hepatocytes were from Bioreclamation IVT (Westbury, NY) or Life Technologies (Carlsbad, CA).
(§2) All cells were cultured at 37°C in a 5% CO2 incubator with 90% humidity unless noted otherwise. […] All cells were treated with the various compounds for 5 days, except for human erythroid and myeloid progenitors, which were treated for 14 days. After the incubation period, cell viability was measured by the addition of CellTiter Glo viability reagents (Promega, Madison, WI). The luminescence signal was quantified on an Envision luminescence plate reader (PerkinElmer, Waltham, MA) after incubation of the reagents and cells for 10 min at room temperature. […] CC50 values were calculated as the average of the results of three or four independent experiments.

[5] = test system: nuclear DNA-encoded succinate dehydrogenase (SDH-A); assay: Nuclear protein synthesis (SDH-A, MitoBiogenesis in-cell ELISA) in PC-3 cells; type: cell-based, human; conditions: 5 days, read-out: Mean CC50 ± SD causing General cellular toxicity: Protein synthesis
Description: (§1) PC-3 cells were treated with the compounds for 5 days and analyzed with the MitoTox MitoBiogenesis in-cell enzyme-linked immunosorbent assay (ELISA) kit (MitoSciences/Abcam, Eugene, Oregon) as described previously ([13]). The assay uses quantitative immunocytochemistry to measure the protein levels of nuclear DNA-encoded succinate dehydrogenase (SDH-A; complex II [succinate dehydrogenase]) and mitochondrial DNA-encoded cytochrome c oxidase (COX-1; complex IV [cytochrome c oxidase]) in cultured cells.

[6] = test system: mitochondrial DNA in PC-3 cells and HepG2 cells; assay: Mitochondrial DNA depletion, PC-3 versus HepG2 cells; type: cell-based, human; conditions: 10-day treatment
Description: Supplementary Fig. S1: PC-3 cells are more sensitive to ddC-induced mitochondria toxicity than HepG2 cells. (A) Levels of mitochondrial DNA in PC-3 cells (shown in […] and dashed line) and HepG2 cells (shown in • and solid line) after 10-day treatment; Levels of mitochondrial protein synthesis in PC-3 cells (B) and HepG2 cells (C) represented by COX-1 protein and nuclear protein synthesis represented by SDH-A protein after 5-day treatment. The levels of COX-1 (•), SDH-A ([…]), and ATP (<) are curve fitted to solid, dash, and dotted lines, […]

[7] = test system: Huh7; assay: Cytotoxicity in Huh7 cells, 5-day treatment (CellTiter Glo); conditions: read-out: Mean CC50 ± SD in Hepatic cells Huh7; 5-day treatment
Description: as §2
Cell Culture and Cytotoxicity Studies
(§3) The Huh-7 cells were maintained in growth medium containing Dulbecco's Modified Eagle
(§4) Medium (DMEM, Cellgro) supplemented with 1% Nonessential Amino Acids (NEAA, Cellgro,
(§5) Manassas, VA), 10% fetal bovine serum (FBS, HyClone, Logan, UT) and 1% Penicillin-
(§6) streptomycin-glutamate (PSG, Invitrogen, Carlsbad, CA). The cells were passaged twice weekly
(§7) and maintained at 90% confluence densities.
(§8) The HepG2 cells were maintained in Eagle’s Minimum Essential Medium (EMEM) from ATCC
(§9) (Manassas, VA) supplemented with 10% FBS, 100 units/mL penicillin and 100 µg/mL
(§10) streptomycin (P/S) (Gibco). The cells were passaged twice weekly and maintained at 90%
(§11) The PC-3 cells were maintained in Kaighn’s F12 medium (Gibco, Carlsbad, CA) supplemented
(§12) with 10% FBS (HyClone, Logan, UT), 100 units/mL penicillin and 100 µg/mL streptomycin
(§13) (P/S) (Gibco). The cells were passaged twice weekly and maintained at 90% confluence. Cells
(§14) between passages 4 and 15 were used in the assays.
(§15) The fibroblast cell line MRC-5 cell line derived from normal lung tissue, was purchased from
(§16) ATCC (Manassas, VA) and cultured in Minimum Essential Medium (MEM) (Cellgro, Manassas,
(§17) VA) supplemented with 10% FBS (HyClone, Logan, UT) and 1% PSG (Invitrogen). The cells
(§18) were passaged twice weekly and maintained at 90% confluence densities.

[8] = test system: mitochondrial spare respiratory capacity in PC-3 cells; assay: Oxygen consumption rate / spare respiratory capacity in PC-3 cells; conditions: PC-3 cells
[9] = test system: human erythroid progenitors (bone marrow cells); assay: Bone marrow erythroid progenitor colony assay, 14 days; type: cell-based; conditions: read-out: Mean CC50 ± SD in Bone marrow cells Erythroid
[10] = test system: Stimulated PBMCs; assay: Cytotoxicity in stimulated PBMCs, 5 days; conditions: read-out: Mean CC50 ± SD in PBMCs Stimulated; 5 days
[11] = test system: HepG2 (galactose); assay: Cytotoxicity in HepG2 (galactose) cells, 5-day treatment; conditions: read-out: Mean CC50 ± SD in Hepatic cells HepG2 (galactose); 5-day treatment
[12] = test system: Quiescent PBMCs; assay: Cytotoxicity in quiescent PBMCs, 5 days; conditions: read-out: Mean CC50 ± SD in PBMCs Quiescent; 5 days
[13] = test system: Prostate cells (PC-3); assay: Cytotoxicity / ATP level in PC-3 cells, 5-day treatment
Description: as §2
Cell Culture and Cytotoxicity Studies
as §3, §4, §5, §6, §7, §8, §9, §10, §11, §12, §13, §14, §15, §16, §17, §18

[14] = test system: mitochondrial DNA-encoded cytochrome c oxidase (COX-1); assay: Mitochondrial protein synthesis assay (COX-1, MitoBiogenesis in-cell ELISA) in PC-3 cells; type: cell-based, human
Description: as §1

## Nc1ccn([C@H]2CC[C@@H](CO)O2)c(=O)n1 [ddC, dideoxycytosine]
[1]
  CC50: > 89 µM
[2]
  CC50: 9.7 ± 2 µM
[3]
  CC50: > 89 µM
[4]
  CC50: > 100 µM
[5]
  CC50: > 1 µM
[6]
  fold greater sensitivity of PC-3 cells than HepG2 cells to mitochondrial DNA depletion: > 30 fold
[7]
  CC50: > 89 µM
[8]; 3-day treatments
  selectivity of effect on spare respiratory capacity versus DNA and ATP levels: specifically inhibited mitochondrial spare respiratory capacity
[8]; read-out: Mean CC50 ± SD causing Mitochondrial toxicity: Respiration, spare respiratory capacity, 3 days
  CC50: 0.21 ± 0.03 µM
[9]
  CC50: 1.9 ± 0.3 µM
[10]
  CC50: > 100 µM
[11]
  CC50: > 89 µM
[12]
  CC50: > 100 µM
[13]; read-out: Mean CC50 ± SD causing General cellular toxicity: ATP level, PC-3 cells, 5 days
  CC50: 0.8 ± 0.21 µM
[13]; read-out: Mean CC50 ± SD in Prostate cells (PC-3), 5-day treatment
  CC50: 0.8 ± 0.21 µM
[14]; 5-day treatment
  fold greater sensitivity of PC-3 cells than HepG2 cells to reductions in COX-1 protein expression: > 500 fold
[14]; PC-3 cells, 5-day treatments
  selectivity of effect on COX-1 versus SDH-A and ATP levels: specifically inhibited COX-1 synthesis
[14]; PC-3 cells, COX-1, 5 days, read-out: Mean CC50 ± SD causing Mitochondrial toxicity: Protein synthesis
  CC50: 0.19 ± 0.07 µM

## O=c1[nH]cc(F)c(=O)[nH]1 [5-FU, 5-flurouracil]
[2]
  CC50: 3.4 ± 0.8 µM
[4]
  CC50: > 100 µM
[9]
  CC50: 3.7 ± 0.5 µM
[10]
  CC50: > 100 µM
[12]
  CC50: > 100 µM
